Values quoted from earlier work in patent publication US20180338982A1, “Cooperative Medication Combination Systems” (priority 2017, published 2018).

Details: in vivo

In the case of `CCC(C)(C)C(=O)O[C@H]1C[C@@H](C)C=C2C=C[C@H](C)[C@H](CC[C@@H]3C[C@@H](O)CC(=O)O3)[C@H]21` [Simvastatin], the Half-life is listed as 2 h.
